These results are taken from patent publication US8389569B2, “Polyspirane compounds, application thereof in the treatment of malaria or toxoplasmosis and method for preparing same” (Universite Joseph Fourier, priority 2007, dated 2013).

For experiment [1], the system named is Plasmodium falciparum 3D7 strain (chloroquine-sensitive). Kind of experiment: Antimalarial activity in vitro, [3H]-hypoxanthine isotopic microtest. The conditions noted are these: asynchronous culture of infected erythrocytes, 48 hours + 18 hours [3H]-hypoxanthine, read-out: Plasmodium Proliferation test 3D7 strain (IC 50). Format: cell-based. How it is done: Before experimentation, parasites of the 3D7 strain (chloroquine-sensitive, […] de Waal H. A. and F. […] ATCC no.: MRA-102) of Plasmodium falciparum are maintained in culture according to the Trager and Jansen method (Trager and Jansen, 1976). The antimalarial activity is measured in vitro on an asynchronous culture of erythrocytes infected with Plasmodium falciparum according to a modified method ([…] et al., 2003) based on the Desjardins isotopic microtest (Desjardins et al., 1979). […] After incubation for 48 hours, 0.5 μCi [^3H]-hypoxanthine (a precursor necessary for the synthesis of the radiolabelled nucleic acids of the parasite) are added to each microtitre plate well. After incubation for 18 hours, the hypoxanthine incorporation reaction is stopped and the cells lysed by direct freezing at -80° C. After thawing, the parasitic macromolecules, including the radiolabelled nucleic acids, are collected on a filter by means of a cell collector. A scintillation cocktail is added to the filter and the incorporated radioactivity is then measured with a scintillation counter. The radioactive background noise is measured starting from non-infected erythrocytes and subtracted from each filter measurement. The viability of the parasites treated with the compound to be tested is measured by their ability to synthesize nucleic acids from a radiolabelled precursor ([H^3]-hypoxanthine) in comparison with the control parasites cultured in the absence of the compound and is expressed as a percentage of the control. The measurements are analyzed by means of the Graphpad Prism software and the IC50 (concentration of compound able to inhibit 50% of the parasites' growth in vitro) is determined graphically. The results obtained appear in the form of IC50 in the table and are the result of two experiments carried out independently (different parasite cultures, different dilutions) in duplicate.

Experiment [2] concerns Toxoplasma (RH-β1 strain) in HFF (Human Foreskin Fibroblast) cells. Kind of experiment: Antitoxoplasmic activity in vitro, colorimetric microtitre proliferation test. Format: cell-based, Toxoplasma gondii. How it is done:
The test implemented here is a colorimetric microtitre test. A monolayer of HFF (Human Foreskin Fibroblast) cells is infected, in a synchronous manner, by the parasite (10^4 parasites per well, RH-β1 strain). After washing, increasing doses (from 50 nM to 100 μM) of compound are added, except to the control well (addition, or no addition, of DMSO). After incubation for 48 hours, the β-galactosidase activity is measured by the addition of a substrate of the enzyme, chlorophenol red β-D-galactopyranoside (CPRG). The plates are again incubated (from 30 min to 16 h at 37° C.) before being read at 570 and 630 nm.

The test system of experiment [3] is synchronized Plasmodium falciparum parasites (ring, trophozoite, schizont). Nature of the experiment: Minimum contact time necessary for cytotoxicity as a function of the parasitic stage (time-course). Format: cell-based. The conditions noted are these: 20×IC50, contact 30 min to 9 h; for activity on the different blood stages of the parasite (FIG. 11): viability as % of control; for speed and reversibility of the action (FIG. 11): washed, viability read at next cycle. The protocol:
A culture of Plasmodium falciparum parasites is synchronized with VarioMACS (which retains the mature forms, which synthesize a pigment: haemozoin). After the culture has been passed through a VarioMACS column for 6 h, the synchronization range of the parasites is restricted by a second synchronization with 5% sorbitol (which retains only the young, so-called ring stage) at time t0, i.e. a short time after the invasion of healthy erythrocytes by the merozoites originating from the schizonts obtained by synchronization with the VarioMACS. The parasites are then brought into contact during each stage (ring, then trophozoite then schizont) with a fixed concentration of compound (20×IC50 previously defined by the above protocol) and for variable periods of time (30 min, 1 h 30 min, 3 h, 5 h, 7 h and 9 h in the case of parasites treated in the ring stage; 30 min, 1 h 30 min, 3 h, 5 h and 7 h in the case of parasites treated in the trophozoite and schizont stage). At the end of the defined period of contact, the erythrocyte mat is washed twice in complete medium. At t0+44h, (i.e. at the start of the subsequent parasitic life cycle), the erythrocyte mats are resuspended and redistributed into 96-well plates (in sextuplicate), 0.5 μCi of tritiated [^3H]-hypoxanthine is then added to the culture medium. From then on, the treatment is the same as that of the abovementioned experiment with one difference: the results obtained appear in the form of a graph which represents the viability of the parasites expressed as a control percentage as a function of the time for which the culture is in contact with the compound to be tested.

Where [4] appears, read: Plasmodium falciparum, 3D7, Erythrocyte, 66 h.
Where [5] appears, read: Toxoplasma, Fibroblast, 48 h, read-out: Toxoplasma Proliferation test (IC 50), HFF monolayer infected with RH-β1 strain, 48 hours incubation, β-galactosidase activity (CPRG).
The mark [6] stands for this setting: HFF monolayer infected with RH-β1 strain, 48 hours incubation, β-galactosidase activity (CPRG), read-out: Toxoplasma Proliferation test (IC 50).

Where two headings read alike, the source gives them in different places.

In the case of `CCCCCCC(=O)OC1CC2(CC[C@]3(C=CC(=O)C=C3)O2)O[C@@]2(CC[C@]3(C=CC(=O)C=C3)O2)C1` (stereo partly drawn) [16b, (8R,10R,21S)-Heptanoate of 7,9,11-trioxatetraspiro[5.1.1.1.5^12.2^10.3^8.2^6]tetracosa-1,4,13,16-dien-3,15-on-21-yl], the IC50 in experiment [1] was 331 nM.
As for `CCCCCCCCCCOC(=O)CC1CC(O)C[C@@]2(CCC3(C=CC(=O)C=C3)O2)O1` (mixture of isomers) [11b, (2S,4R,6S)- and decyl (2R,4S,6R)-(4-Hydroxy-11-oxo-1,7-dioxadispiro[5.1.5.2]pentadeca-9,12-dien-2-yl)-acetate], the IC50 in experiment [1] (setting [4]) worked out at 1360 nM; in experiment [2] (setting [5]), 1640 nM.
As to `CCCCCCCCCCCCCC(=O)OC1CC2(CC[C@]3(C=CC(=O)C=C3)O2)O[C@@]2(CC[C@]3(C=CC(=O)C=C3)O2)C1` (stereo partly drawn) [16d, (8R,10R,21S)-Tetradecanoate of 7,9,11-trioxatetraspiro[5.1.1.1.5^12.2^10.3^8.2^6]tetracosa-1,4,13,16-dien-3,15-on-21-yl], the IC50 in experiment [1] worked out at 91.7 nM. Moreover, the IC50 in experiment [2] (read-out: Toxoplasma Proliferation test (IC 50), HFF monolayer infected with RH-β1 strain, 48 hours incubation, β-galactosidase activity (CPRG)) amounted to 636 nM. In experiment [3], the “activity on the different blood stages of the parasite (FIG. 11)” value was “active on the different blood stages (rings, trophozoites and schizonts)”; the “speed and reversibility of the action (FIG. 11)” value was “extremely rapid and is not reversible”.
As for `CCCOC(=O)C[C@@H]1C[C@@H](O)C[C@]2(CCC3(C=CC(=O)C=C3)O2)O1` (mixture of isomers) [10a, propyl (2S,4R,6R)- and (2R,4S,6S)-(4-Hydroxy-1′-oxo-1,7-dioxadispiro[5.1.5.2]pentadeca-9,12-dien-2-yl)-acetate], the IC50 in experiment [1] turned out to be 1840 nM; in experiment [2] (setting [6]), 500 nM.
Regarding `CCCCCCCCCCCCCCCCCCOC(=O)C[C@@H]1C[C@@H](O)C[C@]2(CCC3(C=CC(=O)C=C3)O2)O1` (racemic) [10c, octadecyl (2S,4R,6R)- and (2R,4S,6S)-(4-Hydroxy-11-oxo-1,7-dioxadispiro[5.1.5.2]pentadeca-9,12-dien-2-yl)-acetate], the figures for the IC50 in experiment [1] (setting [4]) and in experiment [2] (setting [5]) were 770 nM and 2400 nM, respectively.
On the same counts, the results for `CCCCCCCCCCCCCCCCCCOC(=O)C[C@@H]1C[C@H](O)C[C@@]2(CCC3(C=CC(=O)C=C3)O2)O1` (racemic) [13c, octadecyl (2S,4S,6S)- and (2R,4R,6R)-(4-Hydroxy-11-oxo-1,7-dioxadispiro[5.1.5.2]pentadeca-9,12-dien-2-yl)-acetate] are 1130 nM and 3520 nM.
With `CCCCCCN(CCCCCC)C(=O)C[C@@H]1C[C@@H](O)C[C@]2(CCC3(C=CC(=O)C=C3)O2)O1` (racemic) [10e, (2S,4R,6R)- and (2R,4S,6S)—N,N-dihexyl-2-(4-hydroxy-11-oxo-1,7-dioxadispiro[5.1.5.2]pentadeca-9,12-dien-2-yl)-acetamide], the IC50 in experiment [1] (setting [4]) was found to be 899 nM.
Take 6-epi-aculeatin D [reference compound]: the IC50 is 451 nM in experiment [1] and 377 nM in experiment [2] (setting [6]).
With `CCCCCCCCCCCCCC(=O)CC(=O)OC1C[C@]2(CCC3(C=CC(=O)C=C3)O2)O[C@]2(CCC3(C=CC(=O)C=C3)O2)C1` (stereo partly drawn) [16e, (8R,10S,21S)- and (8S,10R,21R)-3-Oxohexadecanoate of 7,9,11-trioxatetraspiro[5.1.1.1.5^12.2^10.3^8.2^6]tetracosa-1,4,13,16-dien-3,15-on-21-yl], in experiment [1], the IC50 amounted to 122 nM.
Regarding `CCCCCCC(=O)OC1CC2(CC[C@]3(C=CC(=O)C=C3)O2)O[C@@]2(CC[C@]3(C=CC(=O)C=C3)O2)C1` (mixture of isomers) [16a, (8R,10S,21S)- and (8S,10R,21R)-Heptanoate of 7,9,11-trioxatetraspiro[5.1.1.1.5^12.2^10.3^8.2^6]tetracosa-1,4,13,16-dien-3,15-on-21-yl], in experiment [1] (setting [4]), the IC50 worked out at 343 nM.
`O=C1C=C[C@]2(C=C1)CCC1(CC(O)C[C@]3(CC[C@@]4(C=CC(=O)C=C4)O3)O1)O2` (stereo partly drawn) [4b, (8R,10R,21S)-21-Hydroxy-7,9,11-trioxatetraspiro[5.1.1.1.5^12.2^10.3^8.2^6]tetracosa-1,4,13,16-dien-3,15-one]: the IC50 in experiment [1] (setting [4]) is 584 nM; in experiment [2] (setting [5]), 1500 nM.
As for `CCCCCCCCCCCCC[C@@H]1C[C@H](O)C[C@]2(CCC3(C=CC(=O)C=C3)O2)O1` [Natural aculeatin B, aculeatin B, reference compound], the values for the IC50 in experiment [1] and in experiment [2] (setting [6]) were 454 nM and 365 nM, respectively.
On the same counts, the results for `CCCCCCCCCCCCC[C@@H]1C[C@@H](O)C[C@]2(CCC3(C=CC(=O)C=C3)O2)O1` [Natural aculeatin A, aculeatin A, reference compound] are 288 nM and 309 nM.
On to `CCCCCCCCCCOC(=O)C[C@@H]1C[C@@H](O)C[C@]2(CCC3(C=CC(=O)C=C3)O2)O1` (racemic) [10b, decyl (2S,4R,6R)- and (2R,4S,6S)-(4-Hydroxy-11-oxo-1,7-dioxadispiro[5.1.5.2]pentadeca-9,12-dien-2-yl)-acetate], for which the results for the IC50 in experiment [1] (setting [4]) and in experiment [2] (setting [5]) were 654 nM and 341 nM, respectively.
With `O=C1C=CC2(C=C1)CC[C@]1(CC(O)C[C@@]3(CCC4(C=CC(=O)C=C4)O3)O1)O2` (stereo partly drawn) [4a, (8R,10S,21S)- and (8S,10R,21R)-21-Hydroxy-7,9,11-trioxatetraspiro[5.1.1.1.5^12.2^10.3^8.2^6]tetracosa-1,4,13,16-dien-3,15-one], the IC50 in experiment [1] was determined as 414 nM; in experiment [2] (setting [6]), 173 nM.
As to `CCCCCCCCCCCCCC(=O)OC1CC2(CC[C@]3(C=CC(=O)C=C3)O2)O[C@@]2(CC[C@]3(C=CC(=O)C=C3)O2)C1` (mixture of isomers) [16c, (8R,10S,21S)- and (8S,10R,21R)-Tetradecanoate of 7,9,11-trioxatetraspiro[5.1.1.1.5^12.2^10.3^8.2^6]tetracosa-1,4,13,16-dien-3,15-on-21-yl], the IC50 in experiment [1] (setting [4]) came to 81.5 nM. Moreover, the IC50 in experiment [2] (setting [5]) was found to be 346 nM. Also, in experiment [3], the “activity on the different blood stages of the parasite (FIG. 11)” value is “active on the different blood stages (rings, trophozoites and schizonts)”; the “speed and reversibility of the action (FIG. 11)” value was “extremely rapid and is not reversible”.
Turning to `CCCCCCCCCCCCCCCCCCOC(=O)C[C@@H]1C[C@H](O)C[C@]2(CCC3(C=CC(=O)C=C3)O2)O1` (racemic) [12c, octadecyl (2S,4S,6R)- and (2R,4R,6S)-(4-Hydroxy-11-oxo-1,7-dioxadispiro[5.1.5.2]pentadeca-9,12-dien-2-yl)-acetate], the IC50 was 1030 nM in experiment [1] (setting [4]) and 3540 nM in experiment [2] (setting [5]).
